# Literature values in PubChem BioAssay AID1259409 (Chemical Carcinogenesis Research Information System (CCRIS), 2018).
# Tested on: rodent chemically induced tumor inhibition, incidence and multiplicity
# Experiment: CCRIS tumor inhibitor studies
# Settings: Carcinogen: AZOXYMETHANE, 25843-45-2, Dose [Inhibitor]: 0, Route [Inhibitor]: ORAL, Species: RAT, Strain/Sex: F344/MALE, Promoter: NONE USED
smiles,measurement,setting,value
CN1C(C(=O)Nc2ccccn2)=C(O)c2ccccc2S1(=O)=O,"tumour outcome (control, treated, inhibition, significance)","150 PPM IN DIET BEGINNING 1 WK POST CARCINOGEN DOSE FOR DURATION OF STUDY (STUDY DURATION: 56 WK), Target Tissue: Type of Lesion: COLON: ADENOMA, Dose [Carcinogen]: 29.6 MG/KG IN NORMAL SALINE ONCE","11/30 (37%), 9/30 (30%), 19%, not calculated"
same,"tumour outcome (control, treated, inhibition, significance)","150 PPM IN DIET BEGINNING 1 WK POST CARCINOGEN DOSE FOR DURATION OF STUDY (STUDY DURATION: 56 WK), Target Tissue: Type of Lesion: SMALL INTESTINE: ADENOCARCINOMA, Dose [Carcinogen]: 29.6 MG/KG IN NORMAL SALINE ONCE","10/30 (33%), 8/30 (27%), 20%, not calculated"
same,"tumour outcome (control, treated, inhibition, significance)","150 PPM IN DIET BEGINNING 1 WK POST CARCINOGEN DOSE FOR DURATION OF STUDY (STUDY DURATION: 56 WK), Target Tissue: Type of Lesion: SMALL INTESTINE: ADENOMA, Dose [Carcinogen]: 29.6 MG/KG IN NORMAL SALINE ONCE","1/30 (3%), 1/30 (3%), 0%, not calculated"
same,"tumour outcome (control, treated, inhibition, significance)","150 PPM IN DIET FOR 29 WK BEGINNING 1 WK POST CARCINOGEN TREATMENT (STUDY DURATION: 32 WK), Target Tissue: Type of Lesion: COLON: ADENOMA, Dose [Carcinogen]: 15 MG/KG BW 1/WK FOR 2 WK","77%, 33%, 57%, p<0.05"
same,"tumour outcome (control, treated, inhibition, significance)","150 PPM IN DIET FOR 29 WK BEGINNING 1 WK POST CARCINOGEN TREATMENT (STUDY DURATION: 32 WK), Target Tissue: Type of Lesion: COLON: CARCINOMA, Dose [Carcinogen]: 15 MG/KG BW 1/WK FOR 2 WK","53%, 23%, 57%, p<0.05"
same,"tumour outcome (control, treated, inhibition, significance)","200 PPM IN DIET BEGINNING 1 WK PRIOR TO CARCINOGEN TREATMENT FOR DURATION OF STUDY (STUDY DURATION: 54 WK), Target Tissue: Type of Lesion: COLON: ADENOCARCINOMA, Dose [Carcinogen]: 15 MG/KG/BW 1/WK FOR 2 WK","58%, 33%, 43%, p<0.05"
same,"tumour outcome (control, treated, inhibition, significance)","200 PPM IN DIET BEGINNING 1 WK PRIOR TO CARCINOGEN TREATMENT FOR DURATION OF STUDY (STUDY DURATION: 54 WK), Target Tissue: Type of Lesion: COLON: ADENOMA., Dose [Carcinogen]: 15 MG/KG/BW 1/WK FOR 2 WK","6%, 8%, -33%, not calculated"
same,"tumour outcome (control, treated, inhibition, significance)","200 PPM IN DIET BEGINNING PRIOR TO CARCINOGEN DOSE AND CONTINUING FOR DURATION OF STUDY (STUDY DURATION: 54 WK), Target Tissue: Type of Lesion: COLON: ADENOCARCINOMA, Dose [Carcinogen]: 15 MG/KG 1/WK FOR 2 WK","72%, 33%, 54%, p<0.001"
same,"tumour outcome (control, treated, inhibition, significance)","200 PPM IN DIET BEGINNING PRIOR TO CARCINOGEN DOSE AND CONTINUING FOR DURATION OF STUDY (STUDY DURATION: 54 WK), Target Tissue: Type of Lesion: COLON: ADENOMA, Dose [Carcinogen]: 15 MG/KG 1/WK FOR 2 WK","14%, 3%, 79%, not calculated"
same,"tumour outcome (control, treated, inhibition, significance)","200 PPM IN DIET BEGINNING PRIOR TO CARCINOGEN DOSE AND CONTINUING FOR DURATION OF STUDY (STUDY DURATION: 54 WK), Target Tissue: Type of Lesion: SMALL INTESTINE: ADENOCARCINOMA, Dose [Carcinogen]: 15 MG/KG 1/WK FOR 2 WK","50%, 17%, 66%, p<0.01"
same,"tumour outcome (control, treated, inhibition, significance)","200 PPM IN DIET BEGINNING PRIOR TO CARCINOGEN DOSE AND CONTINUING FOR DURATION OF STUDY (STUDY DURATION: 54 WK), Target Tissue: Type of Lesion: SMALL INTESTINE: ADENOMA, Dose [Carcinogen]: 15 MG/KG 1/WK FOR 2 WK","3%, 0%, 100%, not calculated"
same,"tumour outcome (control, treated, inhibition, significance)","200 PPM IN DIET FOR 56 WK BEGINNING 2 WK PRIOR TO CARCINOGEN TREATMENT (STUDY DURATION: 56 WK), Target Tissue: Type of Lesion: COLON(DISTAL): TUMOR, Dose [Carcinogen]: 15 MG/KG 1/WK FOR 2 WK","52%, 35%, 33%, p<0.05"
same,"tumour outcome (control, treated, inhibition, significance)","200 PPM IN DIET FOR 56 WK BEGINNING 2 WK PRIOR TO CARCINOGEN TREATMENT (STUDY DURATION: 56 WK), Target Tissue: Type of Lesion: COLON(PROXIMAL): TUMOR, Dose [Carcinogen]: 15 MG/KG 1/WK FOR 2 WK","38%, 15%, 61%, p<0.01"
same,"tumour outcome (control, treated, inhibition, significance)","200 PPM IN DIET FOR 56 WK BEGINNING 2 WK PRIOR TO CARCINOGEN TREATMENT (STUDY DURATION: 56 WK), Target Tissue: Type of Lesion: SMALL INTESTINE(DISTAL): TUMOR, Dose [Carcinogen]: 15 MG/KG 1/WK FOR 2 WK","12%, 6%, 50%, not significant"
same,"tumour outcome (control, treated, inhibition, significance)","200 PPM IN DIET FOR 56 WK BEGINNING 2 WK PRIOR TO CARCINOGEN TREATMENT (STUDY DURATION: 56 WK), Target Tissue: Type of Lesion: SMALL INTESTINE(PROXIMAL): TUMOR, Dose [Carcinogen]: 15 MG/KG 1/WK FOR 2 WK","33%, 11%, 67%, p<0.05"
